Measured values from patent US12129246B1, “Hydroquinazoline derivatives for the treatment of a disease or disorder” (Novartis AG, priority 2023, dated 2024).
Like-named read-outs stand apart in the source and are kept apart here.

What was measured:
human NPR1 = biological target: T1, human NPR1 (Homo sapiens, UniProt P16066); assay: Cellular cGMP production assay, human NPR1 expressing CHO-K1 cells (CisBio HTRF); format: cell-based; settings: for AC50: cGMP production, 30 min at 37° C., 12-point dose-response from 30 μM; for Human NPR1 Amax (% of ANP): maximum cGMP production as percentage of the maximum cGMP produced with ANP
T1 construct: host or cells: CHO-K1
T1 sequence (P16066 33-1061): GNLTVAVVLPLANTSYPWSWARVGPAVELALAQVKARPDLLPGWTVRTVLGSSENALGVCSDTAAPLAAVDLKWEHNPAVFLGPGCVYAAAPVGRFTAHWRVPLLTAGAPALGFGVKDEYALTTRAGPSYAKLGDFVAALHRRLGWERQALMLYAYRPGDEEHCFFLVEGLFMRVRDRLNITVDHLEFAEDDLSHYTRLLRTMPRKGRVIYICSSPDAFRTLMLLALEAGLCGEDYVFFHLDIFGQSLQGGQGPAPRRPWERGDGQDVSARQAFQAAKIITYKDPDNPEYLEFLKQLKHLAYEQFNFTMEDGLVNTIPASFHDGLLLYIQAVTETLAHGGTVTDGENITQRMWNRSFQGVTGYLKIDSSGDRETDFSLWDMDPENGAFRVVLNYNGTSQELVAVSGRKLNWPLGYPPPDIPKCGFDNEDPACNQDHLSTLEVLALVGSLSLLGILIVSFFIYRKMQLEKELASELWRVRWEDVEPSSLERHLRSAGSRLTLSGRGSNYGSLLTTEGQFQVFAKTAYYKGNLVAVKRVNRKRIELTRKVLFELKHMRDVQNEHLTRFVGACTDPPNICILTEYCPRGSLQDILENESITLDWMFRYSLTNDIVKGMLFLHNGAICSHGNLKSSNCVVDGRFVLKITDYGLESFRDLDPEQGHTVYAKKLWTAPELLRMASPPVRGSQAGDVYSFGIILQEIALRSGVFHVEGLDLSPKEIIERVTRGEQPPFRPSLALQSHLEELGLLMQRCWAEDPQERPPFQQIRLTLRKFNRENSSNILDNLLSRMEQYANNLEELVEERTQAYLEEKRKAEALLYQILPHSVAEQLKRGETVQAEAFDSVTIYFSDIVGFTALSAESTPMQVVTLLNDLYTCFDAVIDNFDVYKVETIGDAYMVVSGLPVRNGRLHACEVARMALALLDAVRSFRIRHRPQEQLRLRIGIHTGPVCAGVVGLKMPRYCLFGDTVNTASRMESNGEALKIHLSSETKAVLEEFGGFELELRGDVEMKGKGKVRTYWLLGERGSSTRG
Summary of the method: (§1)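 Read-out was HTRF (excitation 317 nm, emission 665 nm), with cGMP quantified as Delta F against a calibrator standard curve. Beforehand, cells were exposed for 30 min at 37 °C to compound (30 μM top, twelve 3-fold steps) in IBMX-containing PBS/BSA buffer, then lysed.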

monkey NPR1 = monkey NPR1 (Macaca fascicularis, UniProt A0A7N9DBT9); assay: Cellular cGMP production assay, monkey NPR1 expressing CHO-K1 cells (CisBio HTRF); format: cell-based; settings: for Monkey NPR1 Amax (% of ANP): maximum cGMP production as percentage of the maximum cGMP produced with ANP
Sequence of monkey NPR1 (A0A7N9DBT9 entry or part of it): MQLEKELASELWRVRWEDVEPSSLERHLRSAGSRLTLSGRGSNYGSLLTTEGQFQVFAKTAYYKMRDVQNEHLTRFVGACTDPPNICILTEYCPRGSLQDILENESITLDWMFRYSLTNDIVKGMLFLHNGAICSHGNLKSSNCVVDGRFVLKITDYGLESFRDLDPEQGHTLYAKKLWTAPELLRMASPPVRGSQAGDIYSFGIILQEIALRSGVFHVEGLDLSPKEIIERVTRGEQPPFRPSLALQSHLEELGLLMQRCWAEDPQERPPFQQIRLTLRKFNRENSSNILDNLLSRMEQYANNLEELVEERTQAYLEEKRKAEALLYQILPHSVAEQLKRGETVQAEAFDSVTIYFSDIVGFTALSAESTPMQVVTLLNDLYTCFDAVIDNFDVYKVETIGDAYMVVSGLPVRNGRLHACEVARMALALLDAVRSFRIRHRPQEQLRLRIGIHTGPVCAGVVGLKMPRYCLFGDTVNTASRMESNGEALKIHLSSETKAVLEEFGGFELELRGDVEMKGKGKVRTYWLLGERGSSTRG
Summary of the method: as §1

[1] = cGMP production, monkey NPR1 CHO-K1 cells, 30 min at 37° C., 12-point dose-response from 30 μM, read-out: Monkey NPR1 AC50

**Q.** What does the source list for CC[C@@H](N(C)c1nc2c(c(N[C@@H](CN3C4CCCC3CCC4)c3cnn(C)c3C)n1)C[C@H](c1cccc(F)c1)CC2)C12CC(C(=O)O)(C1)C2 [Compound 89, 3-((R)-1-(((R)-4-(((R)-2-((1S,5S)-9-azabicyclo[3.3.1]nonan-9-yl)-1-(1,5-dimethyl-1H-pyrazol-4-yl)ethyl)amino)-6-(3-fluorophenyl)-5,6,7,8-tetrahydroquinazolin-2-yl)(methyl)amino)propyl)bicyclo[1.1.1]pentane-1-carboxylic acid]?
**A.** AC50 (human NPR1): 309 nM; Human NPR1 Amax (% of ANP) (human NPR1): 98.816 % of ANP; AC50 (monkey NPR1): 268 nM; Monkey NPR1 Amax (% of ANP) (monkey NPR1; monkey NPR1 CHO-K1 cells): 103.084 % of ANP

**Q.** What does the source list for CC[C@H]([C@H]1CC[C@H](C(=O)O)CC1)N(C)c1nc2c(c(N[C@@H](CN3C4CCCC3CC4)c3ccnn3C)n1)C[C@H](c1cccc(F)c1)CC2 [Compound 164, (1R,4r)-4-((1R)-1-(((6R)-4-(((1S)-2-(8-azabicyclo[3.2.1]octan-8-yl)-1-(1-methyl-1H-pyrazol-5-yl)ethyl)amino)-6-(3-fluorophenyl)-5,6,7,8-tetrahydroquinazolin-2-yl)(methyl)amino)propyl)cyclohexane-1-carboxylic acid]?
**A.** AC50 (human NPR1): 1780 nM; Human NPR1 Amax (% of ANP) (human NPR1): 94.088 % of ANP; AC50 (monkey NPR1): 946 nM; Monkey NPR1 Amax (% of ANP) (monkey NPR1; monkey NPR1 CHO-K1 cells): 92.193 % of ANP

**Q.** Which AC50 (human NPR1) does the source give for CC[C@@H](Nc1nc2c(c(N[C@@H](CN3C[C@H]4CC[C@@H]3C4)c3cnn(CC)c3)n1)C[C@H](c1ccccc1)CC2)[C@H]1CC[C@H](C(=O)O)CC1 [Compound 122, (1R,4r)-4-((R)-1-(((R)-4-(((R)-2-((1R,4S)-2-azabicyclo[2.2.1]heptan-2-yl)-1-(1-ethyl-1H-pyrazol-4-yl)ethyl)amino)-6-phenyl-5,6,7,8-tetrahydroquinazolin-2-yl)amino)propyl)cyclohexane-1-carboxylic acid] here?
**A.** 574 nM

**Q.** And the “Human NPR1 Amax (% of ANP)” value (human NPR1)?
**A.** 102.209 % of ANP

**Q.** And the AC50 (monkey NPR1; [1])?
**A.** 411 nM

**Q.** And the “Monkey NPR1 Amax (% of ANP)” value (monkey NPR1; monkey NPR1 CHO-K1 cells)?
**A.** 99.605 % of ANP

**Q.** With CC[C@H]([C@H]1CC[C@H](C(=O)O)CC1)N(C)c1nc2c(c(N[C@@H](CN3CCC[C@H](C)C3)c3cnn(C)c3)n1)CN(c1cccc(Cl)c1)CC2 [Compound 170, (1R,4r)-4-((R)-1-((6-(3-chlorophenyl)-4-(((R)-1-(1-methyl-1H-pyrazol-4-yl)-2-((S)-3-methylpiperidin-1-yl)ethyl)amino)-5,6,7,8-tetrahydropyrido[4,3-d]pyrimidin-2-yl)(methyl)amino)propyl)cyclohexane-1-carboxylic acid] as the compound, how does the AC50 (human NPR1) read?
**A.** 2740 nM

**Q.** And the “Human NPR1 Amax (% of ANP)” value (human NPR1)?
**A.** 97.591 % of ANP

**Q.** And the AC50 (monkey NPR1; [1])?
**A.** 790 nM

**Q.** What about the “Monkey NPR1 Amax (% of ANP)” value (monkey NPR1; monkey NPR1 CHO-K1 cells) of the same compound?
**A.** 124.109 % of ANP

**Q.** Which results are given for CN(c1nc2c(c(N[C@@H](CN3C4CCCC3CCC4)c3cnn(C)c3)n1)C[C@H](c1ccccc1)CC2)[C@H](C1CC1)[C@H]1CC[C@H](C(=O)O)CC1 [Compound 133, (1R,4r)-4-((R)-(((R)-4-(((R)-2-((1S,5S)-9-azabicyclo[3.3.1]nonan-9-yl)-1-(1-methyl-1H-pyrazol-4-yl)ethyl)amino)-6-phenyl-5,6,7,8-tetrahydroquinazolin-2-yl)(methyl)amino)(cyclopropyl)methyl)cyclohexane-1-carboxylic acid]?
**A.** AC50 (human NPR1): 765 nM; Human NPR1 Amax (% of ANP) (human NPR1): 95.978 % of ANP; AC50 (monkey NPR1): 647 nM; Monkey NPR1 Amax (% of ANP) (monkey NPR1; monkey NPR1 CHO-K1 cells): 99.809 % of ANP

**Q.** With CC[C@@H](N(C)c1nc2c(c(N[C@@H](CN3CCC[C@H](C)C3)c3cc(C)nn3C)n1)C[C@H](c1ccccc1)CC2)C12CC(C(=O)O)(C1)C2 [Compound 140, 3-(1-(((R)-4-(((S)-1-(1,3-dimethyl-1H-pyrazol-5-yl)-2-((S)-3-methylpiperidin-1-yl)ethyl)amino)-6-phenyl-5,6,7,8-tetrahydroquinazolin-2-yl)(methyl)amino)-1l3-propyl)bicyclo[1.1.1]pentane-1-carboxylic acid] as the compound, how does the AC50 (human NPR1) read?
**A.** 885 nM

**Q.** And the “Human NPR1 Amax (% of ANP)” value (human NPR1)?
**A.** 89.152 % of ANP

**Q.** What about the AC50 (monkey NPR1; [1]) of the same compound?
**A.** 499 nM

**Q.** What about the “Monkey NPR1 Amax (% of ANP)” value (monkey NPR1; monkey NPR1 CHO-K1 cells) of the same compound?
**A.** 96.883 % of ANP

**Q.** CC[C@@H](Nc1nc2c(c(N[C@@H](CN3C4CCCC3CCC4)c3cnn(C(C)C)c3)n1)C[C@H](c1ccccc1)CC2)[C@H]1CC[C@H](C(=O)O)CC1 [Compound 132, (1R,4r)-4-((R)-1-(((R)-4-(((R)-2-((1S,5S)-9-azabicyclo[3.3.1]nonan-9-yl)-1-(1-isopropyl-1H-pyrazol-4-yl)ethyl)amino)-6-phenyl-5,6,7,8-tetrahydroquinazolin-2-yl)amino)propyl)cyclohexane-1-carboxylic acid] was tested. Which AC50 (human NPR1) did it give?
**A.** 757 nM

**Q.** What about the “Human NPR1 Amax (% of ANP)” value (human NPR1) of the same compound?
**A.** 97.440 % of ANP

**Q.** What about the AC50 (monkey NPR1) of the same compound?
**A.** 620 nM

**Q.** And the “Monkey NPR1 Amax (% of ANP)” value (monkey NPR1; monkey NPR1 CHO-K1 cells)?
**A.** 103.231 % of ANP

**Q.** How did the AC50 (human NPR1) turn out when CC[C@@H](N(C)c1nc2c(c(N[C@@H](CN3C4CCCC3CCC4)c3cnn(C)c3)n1)C[C@H](c1ccc(F)cc1)CC2)C12CC(C(=O)O)(C1)C2 [Compound 11, 3-((R)-1-(((R)-4-(((R)-2-((1S,5S)-9-azabicyclo[3.3.1]nonan-9-yl)-1-(1-methyl-1H-pyrazol-4-yl)ethyl)amino)-6-(4-fluorophenyl)-5,6,7,8-tetrahydroquinazolin-2-yl)(methyl)amino)propyl)bicyclo[1.1.1]pentane-1-carboxylic acid] was run?
**A.** 94 nM

**Q.** And the “Human NPR1 Amax (% of ANP)” value (human NPR1)?
**A.** 103.738 % of ANP

**Q.** What about the AC50 (monkey NPR1) of the same compound?
**A.** 70 nM

**Q.** What about the “Monkey NPR1 Amax (% of ANP)” value (monkey NPR1; monkey NPR1 CHO-K1 cells) of the same compound?
**A.** 113.853 % of ANP

**Q.** How did the AC50 (human NPR1) turn out when CC[C@H]([C@H]1CC[C@H](C(=O)O)CC1)N(C)c1nc2c(c(N[C@@H](CN3CCC[C@H](COC)C3)c3cnn(C)c3)n1)C[C@H](c1cccc(F)c1)CC2 [Compound 35, (1R,4r)-4-((R)-1-(((R)-6-(3-fluorophenyl)-4-(((R)-2-((S)-3-(methoxymethyl)piperidin-1-yl)-1-(1-methyl-1H-pyrazol-4-yl)ethyl)amino)-5,6,7,8-tetrahydroquinazolin-2-yl)(methyl)amino)propyl)cyclohexane-1-carboxylic acid] was run?
**A.** 148 nM

**Q.** What about the “Human NPR1 Amax (% of ANP)” value (human NPR1) of the same compound?
**A.** 92.607 % of ANP

**Q.** What about the AC50 (monkey NPR1; [1]) of the same compound?
**A.** 127 nM

**Q.** What about the “Monkey NPR1 Amax (% of ANP)” value (monkey NPR1; monkey NPR1 CHO-K1 cells) of the same compound?
**A.** 104.934 % of ANP

**Q.** Which AC50 (human NPR1) does the source give for CC[C@H]([C@H]1CC[C@H](C(=O)O)CC1)N(C)c1nc2c(c(N[C@@H](CN3CCC[C@H](COC)C3)c3cnn(C)c3)n1)C[C@H](c1ccccc1)CC2 [Compound 83, (1R,4r)-4-((R)-1-(((R)-4-(((R)-2-((S)-3-(methoxymethyl)piperidin-1-yl)-1-(1-methyl-1H-pyrazol-4-yl)ethyl)amino)-6-phenyl-5,6,7,8-tetrahydroquinazolin-2-yl)(methyl)amino)propyl)cyclohexane-1-carboxylic acid] here?
**A.** 282 nM

**Q.** What about the “Human NPR1 Amax (% of ANP)” value (human NPR1) of the same compound?
**A.** 98.117 % of ANP

**Q.** And the AC50 (monkey NPR1; [1])?
**A.** 173 nM

**Q.** And the “Monkey NPR1 Amax (% of ANP)” value (monkey NPR1; monkey NPR1 CHO-K1 cells)?
**A.** 98.205 % of ANP

**Q.** For C[C@@H](Nc1nc2c(c(N[C@@H](CN3CCCC3)c3ccccc3)n1)C[C@H](c1ccccc1)CC2)c1ccc(C(=O)O)cc1 [Compound 159, 4-((R)-1-(((R)-6-phenyl-4-(((R)-1-phenyl-2-(pyrrolidin-1-yl)ethyl)amino)-5,6,7,8-tetrahydroquinazolin-2-yl)amino)ethyl)benzoic acid], which AC50 (human NPR1) is on record?
**A.** 1580 nM

**Q.** And the “Human NPR1 Amax (% of ANP)” value (human NPR1)?
**A.** 92.446 % of ANP

**Q.** What about the AC50 (monkey NPR1; [1]) of the same compound?
**A.** 503 nM

**Q.** And the “Monkey NPR1 Amax (% of ANP)” value (monkey NPR1; monkey NPR1 CHO-K1 cells)?
**A.** 98.468 % of ANP
